In patent US10118935B2, “Melampomagnolide B dimers” (priority 2014, dated 2018):
Read-outs that look alike come from different tables or passages of the source.

What was measured:
[1] = system: OVCAR-3; assay: NCI 60 cell line five dose, Ovarian Cancer
[2] = system: RPMI-8226; assay: NCI 60 cell line five dose, Leukemia
[3] = system: NCI-H322M
[4] = system: NCI-H460; assay: NCI 60 cell line five dose, Non-Small Cell Lung Cancer
[5] = system: SNB-19
[6] = system: OVCAR-5; assay: NCI 60 cell line five dose, Ovarian Cancer
[7] = system: U251; assay: NCI 60 cell line five dose, CNS Cancer
[8] = system: DU-145; assay: NCI 60 cell line five dose, Prostate Cancer
[9] = system: 786-0; assay: NCI 60 cell line five dose, Renal Cancer
[10] = system: MALME-3M; assay: NCI 60 cell line five dose, Melanoma; settings: MALME-3M
[11] = system: SNB-75; assay: NCI 60 cell line five dose, CNS Cancer
[12] = system: HCC-2998; assay: NCI 60 cell line five dose, Colon Cancer
[13] = system: SK-OV-3; assay: NCI 60 cell line five dose, Ovarian Cancer
[14] = system: MCF7; assay: NCI 60 cell line five dose, Breast Cancer
[15] = system: UACC-257; assay: NCI 60 cell line five dose, Melanoma
[16] = system: NCI/ADR-RES; assay: NCI 60 cell line five dose, Ovarian Cancer; settings: NCI/ADR-RES
[17] = system: NCI-H522; assay: NCI 60 cell line five dose, Non-Small Cell Lung Cancer
[18] = system: SK-MEL-5; assay: NCI 60 cell line five dose, Melanoma; settings: SK-MEL-5
[19] = system: SW-620; assay: NCI 60 cell line five dose, Colon Cancer
[20] = system: PC-3; assay: NCI 60 cell line five dose, Prostate Cancer; settings: for CC50: read-out: LC50
[21] = system: LOX IMVI; assay: NCI 60 cell line five dose, Melanoma
[22] = system: UO-31; assay: NCI 60 cell line five dose, Renal Cancer
[23] = system: HOP-92; assay: NCI 60 cell line five dose, Non-Small Cell Lung Cancer
[24] = system: SN12C; assay: NCI 60 cell line five dose, Renal Cancer
[25] = system: CAKI-1; assay: NCI 60 cell line five dose, Renal Cancer

With `C=C1C(=O)O[C@H]2[C@H]1CC/C(COC(=O)NCCCCCNC(=O)OC/C1=C/CC[C@@]3(C)O[C@H]3[C@H]3OC(=O)C(=C)[C@@H]3CC1)=C\CC[C@@]1(C)O[C@@H]21` [JVM 2-76, bis(((1aR,7aS,10aS,10bS,E)-1a-Methyl-8-methylene-9-oxo-1a,2,3,6,7,7a,8,9,10a,10b-decahydrooxireno[2′,3′:9,10]cyclodeca[1,2-b]furan-5-yl)methyl)pentane-1,5-diyldicarbamate] the GI50 [1] was 0.76 µM, the TGI [1] was 2.13 µM and the CC50 ([1]; read-out: LC50) was 5.07 µM. The GI50 [2] was 0.78 µM, the TGI [2] was 4.16 µM and the CC50 ([2]; read-out: LC50) was > 100 µM. The CC50 [3] was > 100 µM, the GI50 [4] was 4.34 µM and the TGI [4] was 16.2 µM. For the same compound, the CC50 ([4]; read-out: LC50) was 50.7 µM, the GI50 ([5]; SNB-19) was 3.97 µM and the TGI ([5]; SNB-19) was 19.0 µM. For the same compound, the CC50 ([5]; read-out: LC50, SNB-19) was 92.5 µM, the GI50 [6] was 1.67 µM and the TGI [6] was 3.53 µM. For the same compound, the CC50 ([6]; read-out: LC50) was 7.47 µM, the GI50 [7] was 3.51 µM and the TGI [7] was 13.7 µM. It also gave a CC50 ([7]; read-out: LC50) of 51.5 µM, a GI50 [8] of 3.06 µM and a TGI [8] of 9.55 µM. The CC50 ([8]; read-out: LC50) was 32.6 µM, the GI50 [9] was 1.57 µM and the TGI [9] was 3.17 µM. For the same compound, the CC50 ([9]; read-out: LC50) was 6.39 µM, the GI50 [10] was 2.06 µM and the TGI [10] was 5.24 µM. For the same compound, the CC50 ([10]; read-out: LC50) was 27.3 µM, the GI50 [11] was 2.2 µM and the TGI [11] was 11.4 µM. For the same compound, the CC50 ([11]; read-out: LC50) was 33.8 µM, the GI50 [12] was 6.71 µM and the TGI [12] was 20.7 µM. It also gave a CC50 ([12]; read-out: LC50) of 53.9 µM, a GI50 [13] of 5.99 µM and a TGI [13] of 19.7 µM. The CC50 ([13]; read-out: LC50) was 49.9 µM, the GI50 [14] was 0.39 µM and the TGI [14] was 1.93 µM. It also gave a CC50 ([14]; read-out: LC50) of 6.2 µM, a GI50 [15] of 2.07 µM and a TGI [15] of 7.46 µM. For the same compound, the CC50 ([15]; read-out: LC50) was 42.4 µM, the GI50 [16] was 70 µM and the TGI [16] was >100 µM. For the same compound, the CC50 ([16]; read-out: LC50) was > 100 µM, the GI50 [17] was 0.22 µM and the TGI [17] was 0.44 µM. The CC50 ([17]; read-out: LC50) was 0.88 µM, the GI50 [18] was 3.19 µM and the TGI [18] was 12.2 µM. For the same compound, the CC50 ([18]; read-out: LC50) was 37 µM, the GI50 [19] was 0.43 µM and the TGI [19] was 1.75 µM. It also gave a CC50 ([19]; read-out: LC50) of 5.14 µM, a GI50 [20] of 3.79 µM and a TGI [20] of 15.6 µM. The CC50 [20] was 49.4 µM, the GI50 [21] was 0.46 µM and the TGI [21] was 1.85 µM. For the same compound, the CC50 ([21]; read-out: LC50) was 5.82 µM, the GI50 [22] was 8.9 µM and the TGI [22] was 22.5 µM. For the same compound, the CC50 ([22]; read-out: LC50) was 52.3 µM, the GI50 [23] was 1.3 µM and the TGI [23] was 3.35 µM. It also gave a CC50 ([23]; read-out: LC50) of 8.61 µM, a GI50 [24] of 2.49 µM and a TGI [24] of 10.7 µM. The CC50 ([24]; read-out: LC50) was 45.5 µM, the GI50 [25] was 16.1 µM and the TGI [25] was 33.1 µM. The CC50 ([25]; read-out: LC50) was 68.1 µM.

In the case of `C=C1C(=O)O[C@H]2[C@H]1CC/C(COC(=O)CCC(=O)NCCCCCCCCNC(=O)CCC(=O)OC/C1=C/CC[C@@]3(C)O[C@H]3[C@H]3OC(=O)C(=C)[C@@H]3CC1)=C\CC[C@@]1(C)O[C@@H]21` [JVM 2-87, bis(((1aR,7aS,10aS,10bS,E)-1a-Methyl-8-methylene-9-oxo-1a,2,3,6,7,7a,8,9,10a,1b-decahydrooxireno[2′,3′:9,10]cyclodeca[1,2-b]furan-5-yl)methyl)4,4′-(octane-1,8-diylbis(azanediyl))bis(4-oxobutanoate)], the GI50 [1] was 1.5 µM, the TGI [1] was 2.82 µM and the GI50 [2] was 1.67 µM. For the same compound, the TGI [2] was 5.70 µM, the CC50 [3] was 60.5 µM and the GI50 [4] was 5 µM. The TGI [4] was 19.9 µM, the CC50 [5] was > 100 µM and the GI50 ([5]; SNB-19) was 4.15 µM. The TGI ([5]; SNB-19) was 19.9 µM, the GI50 [6] was 1.82 µM and the TGI [6] was 3.64 µM. The GI50 [7] was 3.03 µM, the TGI [7] was 10.6 µM and the GI50 [8] was 1.92 µM. The TGI [8] was 3.61 µM, the GI50 [9] was 1.62 µM and the TGI [9] was 3.29 µM. It also gave a GI50 [10] of 2.04 µM, a TGI [10] of 4.04 µM and a GI50 [11] of 2.02 µM. The TGI [11] was 7.25 µM, the GI50 [12] was 4.12 µM and the TGI [12] was 16.7 µM. The GI50 [13] was 6.45 µM, the TGI [13] was 19.7 µM and the GI50 [14] was 0.77 µM. It also gave a TGI [14] of 2.47 µM, a GI50 [15] of 1.76 µM and a TGI [15] of 4.48 µM. The GI50 [16] was 33.5 µM, the TGI [16] was >100 µM and the GI50 [17] was 0.48 µM. For the same compound, the TGI [17] was 1.80 µM, the GI50 [18] was 3.13 µM and the TGI [18] was 11.1 µM. The GI50 [19] was 1.22 µM, the TGI [19] was 2.97 µM and the GI50 [20] was 3.64 µM. It also gave a TGI [20] of 13.7 µM, a CC50 [20] of 40.7 µM and a GI50 [21] of 1.37 µM. For the same compound, the TGI [21] was 2.76 µM, the GI50 [22] was 10.9 µM and the TGI [22] was 24.2 µM. The GI50 [23] was 1.58 µM, the TGI [23] was 3.27 µM and the GI50 [24] was 3.74 µM. For the same compound, the TGI [24] was 14.8 µM, the GI50 [25] was 12.7 µM and the TGI [25] was 32.0 µM.

In the case of `C=C1C(=O)O[C@H]2[C@H]1CC/C(COC(=O)CCC(=O)NCCCCCCCCCNC(=O)CCC(=O)OC/C1=C/CC[C@@]3(C)O[C@H]3[C@H]3OC(=O)C(=C)[C@@H]3CC1)=C\CC[C@@]1(C)O[C@@H]21` [JVM 2-92, bis(((1aR,7aS,10aS,10bS,E)-1a-Methyl-8-methylene-9-oxo-1a,2,3,6,7,7a,8,9,10a,10b-decahydrooxireno[2′,3′:9,10]cyclodeca[1,2-b]furan-5-yl)methyl)4,4′-(nonane-1,9-diylbis(azanediyl))bis (4-oxobutanoate)], the GI50 [1] was 1.29 µM, the TGI [1] was 2.61 µM and the GI50 [2] was 0.5 µM. It also gave a TGI [2] of 3.33 µM, a CC50 [3] of 61.3 µM and a GI50 [4] of 2.18 µM. The TGI [4] was 5.17 µM, the CC50 [5] was > 100 µM and the GI50 ([5]; SNB-19) was 3.38 µM. For the same compound, the TGI ([5]; SNB-19) was 16.3 µM, the GI50 [6] was 1.7 µM and the TGI [6] was 3.47 µM. For the same compound, the GI50 [7] was 3.01 µM, the TGI [7] was 9.25 µM and the GI50 [8] was 1.75 µM. The TGI [8] was 3.18 µM, the GI50 [9] was 1.49 µM and the TGI [9] was 3.00 µM. The GI50 [10] was 1.94 µM, the TGI [10] was 4.17 µM and the GI50 [11] was 1.47 µM. It also gave a TGI [11] of 4.35 µM, a GI50 [12] of 2.25 µM and a TGI [12] of 4.70 µM. It also gave a GI50 [13] of 5.8 µM, a TGI [13] of 19.2 µM and a GI50 [14] of 0.42 µM. The TGI [14] was 1.85 µM, the GI50 [15] was 2.06 µM and the TGI [15] was 5.59 µM. For the same compound, the GI50 [16] was 26.7 µM, the TGI [16] was >100 µM and the GI50 [17] was 0.42 µM. The TGI [17] was 1.64 µM, the GI50 [18] was 1.88 µM and the TGI [18] was 4.19 µM. The GI50 [19] was 0.54 µM, the TGI [19] was 2.07 µM and the GI50 [20] was 2.53 µM. The TGI [20] was 7.31 µM, the GI50 [21] was 0.37 µM and the TGI [21] was 1.36 µM. It also gave a GI50 [22] of 3.9 µM, a TGI [22] of 16.1 µM and a GI50 [23] of 1.4 µM. For the same compound, the TGI [23] was 3.05 µM, the GI50 [24] was 2.69 µM and the TGI [24] was 10.3 µM. It also gave a GI50 [25] of 10.5 µM and a TGI [25] of 22.8 µM.
